Assay [1] has as its target T1, ΔF508-CFTR (Homo sapiens, UniProt P13569, DEL508-508).
T1 construct: host or cells: CFBE41o-, doxycycline-inducible
Kind of assay: CFTR cell surface levels using HRP-tagged ΔF508-CFTR expressing CFBE cells, intrinsic corrector capacity. Type of assay: cell-based. Further details: % Activation: concentration or dose not given beside the values. The settings on record: HRP-tagged ΔF508-CFTR expressing CFBE41o- cells, compound alone (intrinsic corrector capacity), 20 hours at 33° C.; for EC50: read-out: EC50. A digest of the protocol: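 Surface ΔF508-CFTR was measured as HRP chemiluminescence from an extracellular-loop-4 tag, expressed as percent activity between DMSO and a […] corrector control.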

The target of assay [2] is T1, ΔF508-CFTR. Kind of assay: CFTR cell surface levels using HRP-tagged ΔF508-CFTR expressing CFBE cells, in the presence of a co-corrector. The assay is classed as cell-based. The conditions noted are these: HRP-tagged ΔF508-CFTR CFBE cells, in the presence of 3 μM co-corrector; for EC50: read-out: EC50. A digest of the protocol:
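Chemiluminescent read-out of surface HRP (15 min, dark) after PBS washes. Activity is normalized as 100×(sample−DMSO)/(3 μM co-corrector alone−DMSO).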

T1 sequence (P13569 with tags, fused parts or gaps DEL508-508): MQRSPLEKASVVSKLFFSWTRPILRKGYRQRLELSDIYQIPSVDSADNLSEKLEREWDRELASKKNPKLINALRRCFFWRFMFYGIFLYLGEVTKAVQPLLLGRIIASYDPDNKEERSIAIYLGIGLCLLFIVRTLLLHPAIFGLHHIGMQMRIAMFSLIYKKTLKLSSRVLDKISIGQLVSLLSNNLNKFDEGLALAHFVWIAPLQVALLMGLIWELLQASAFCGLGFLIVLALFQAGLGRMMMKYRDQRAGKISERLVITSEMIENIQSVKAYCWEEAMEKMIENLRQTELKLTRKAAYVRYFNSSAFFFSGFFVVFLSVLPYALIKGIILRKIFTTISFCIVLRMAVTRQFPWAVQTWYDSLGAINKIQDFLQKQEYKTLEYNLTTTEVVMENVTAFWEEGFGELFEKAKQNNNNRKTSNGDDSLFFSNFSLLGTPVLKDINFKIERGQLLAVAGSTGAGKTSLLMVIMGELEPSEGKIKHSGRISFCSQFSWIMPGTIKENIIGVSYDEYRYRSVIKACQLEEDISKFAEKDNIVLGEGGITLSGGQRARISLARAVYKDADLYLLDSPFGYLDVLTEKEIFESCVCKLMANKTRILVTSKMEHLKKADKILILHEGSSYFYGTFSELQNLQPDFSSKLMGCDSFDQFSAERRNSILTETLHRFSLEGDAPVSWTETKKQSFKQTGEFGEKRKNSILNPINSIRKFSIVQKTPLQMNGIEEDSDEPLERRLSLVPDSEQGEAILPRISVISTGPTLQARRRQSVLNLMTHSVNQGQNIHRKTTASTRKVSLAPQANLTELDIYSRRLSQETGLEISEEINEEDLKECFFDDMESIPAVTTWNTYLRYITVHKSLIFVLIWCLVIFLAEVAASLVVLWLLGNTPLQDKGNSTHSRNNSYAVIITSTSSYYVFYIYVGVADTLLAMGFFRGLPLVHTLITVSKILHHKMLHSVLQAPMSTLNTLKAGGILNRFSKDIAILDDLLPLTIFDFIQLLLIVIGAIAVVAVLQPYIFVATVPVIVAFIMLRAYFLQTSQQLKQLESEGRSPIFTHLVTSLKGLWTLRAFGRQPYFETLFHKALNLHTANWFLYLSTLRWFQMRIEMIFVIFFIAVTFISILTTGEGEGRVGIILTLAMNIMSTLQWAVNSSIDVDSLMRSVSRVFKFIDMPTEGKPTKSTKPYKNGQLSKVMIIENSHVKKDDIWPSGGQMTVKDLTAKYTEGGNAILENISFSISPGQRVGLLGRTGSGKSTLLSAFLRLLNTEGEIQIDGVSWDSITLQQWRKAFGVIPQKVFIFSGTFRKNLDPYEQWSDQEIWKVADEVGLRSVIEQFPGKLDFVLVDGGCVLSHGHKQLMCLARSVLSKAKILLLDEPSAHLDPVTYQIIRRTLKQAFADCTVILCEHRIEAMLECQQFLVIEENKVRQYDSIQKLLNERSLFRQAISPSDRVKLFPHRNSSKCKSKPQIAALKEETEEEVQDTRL

Consider `CNS(=O)(=O)NC(=O)c1cc(N2CCC(N3CCC(F)CC3)CC2)c2c(C3CCC3)nn(-c3ccc(F)cc3)c2n1` [Compound 650, 3-cyclobutyl-4-(4-fluoro[1,4'-bipiperidin]-1'-yl)-1-(4-fluorophenyl)-N-(methylsulfamoyl)-1H-pyrazolo[3,4-b]pyridine-6-carboxamide], for which, at ΔF508-CFTR [1], the “% Activation” value was 385.4% and the half-maximal effective concentration (EC50) (commonly the concentration needed to bring the measured effect to its halfway point) turned out to be 115 nM. Moreover, at ΔF508-CFTR [2], the “% Activation” value was 592.45% and the EC50 is 96.4 nM.
As to `CC(C)N1CCN(C2CCN(c3cc(C(=O)NS(=O)(=O)N4CCC4)nc4c3c(C3CCC3)nn4-c3ccc(F)cc3)CC2)CC1` [Compound 651, N-(azetidine-1-sulfonyl)-3-cyclobutyl-1-(4-fluorophenyl)-4-{4-[4-(propan-2-yl)piperazin-1-yl]piperidin-1-yl}-1H-pyrazolo[3,4-b]pyridine-6-carboxamide], on ΔF508-CFTR [1], the “% Activation” value came out at 317.85% and the half-maximal effective concentration (EC50) came to 206 nM. For the same compound, at ΔF508-CFTR [2], the “% Activation” value was 532.4% and the half-maximal effective concentration (EC50) amounted to 128 nM.
Taken in the same sequence, the figures for `CN(C)S(=O)(=O)NC(=O)c1cc(N2CCC(N3CCOCC3)CC2)c2c(C3CCC3)nn(-c3cccc(OC(F)F)c3)c2n1` [Compound 652, 3-cyclobutyl-1-[3-(difluoromethoxy)phenyl]-N-(dimethylsulfamoyl)-4-[4-(morpholin-4-yl)piperidin-1-yl]-1H-pyrazolo[3,4-b]pyridine-6-carboxamide] were 289.03%, 84.1 nM, 499.65% and 24.9 nM.
On to `CN(C(=O)c1cc(N2CCC(N3CCOCC3)CC2)c2c(C3CCC3)nn(-c3ccccc3)c2n1)S(C)(=O)=O` [Compound 656, 3-cyclobutyl-N-(methanesulfonyl)-N-methyl-4-[4-(morpholin-4-yl)piperidin-1-yl]-1-phenyl-1H-pyrazolo[3,4-b]pyridine-6-carboxamide], for which the results for the “% Activation” value at ΔF508-CFTR [1] and at ΔF508-CFTR [2] were 102.63% and 289.68%, respectively.
Regarding `COCC1CCN(c2cc(C(=O)N(C)S(C)(=O)=O)nc3c2c(C2CCC2)nn3-c2ccccc2)CC1` [Compound 657, 3-cyclobutyl-N-(methanesulfonyl)-4-[4-(methoxymethyl)piperidin-1-yl]-N-methyl-1-phenyl-1H-pyrazolo[3,4-b]pyridine-6-carboxamide], the “% Activation” value on ΔF508-CFTR [1] is 98%; on ΔF508-CFTR [2], 270.75%. Also, the EC50 on ΔF508-CFTR [1] stood at 281 nM; on ΔF508-CFTR [2], 197 nM.
`CCS(=O)(=O)N(C)C(=O)c1cc(N2CCC(N3CCOCC3)CC2)c2c(C3CCC3)nn(-c3ccccc3)c2n1` [Compound 658, 3-cyclobutyl-N-(ethanesulfonyl)-N-methyl-4-[4-(morpholin-4-yl)piperidin-1-yl]-1-phenyl-1H-pyrazolo[3,4-b]pyridine-6-carboxamide]: the results for the “% Activation” value at ΔF508-CFTR [1] and at ΔF508-CFTR [2] were 99.025% and 270.6%, respectively.
For the compound `CN1CCCN(C(=O)c2cc(N3CCC(CN4CCCC4)CC3)c3c(C4CCC4)nn(-c4ccccc4)c3n2)S1(=O)=O` [Compound 660, 2-(3-cyclobutyl-1-phenyl-4-{4-[(pyrrolidin-1-yl)methyl]piperidin-1-yl}-1H-pyrazolo[3,4-b]pyridine-6-carbonyl)-6-methyl-1λ^6,2,6-thiadiazinane-1,1-dione], the “% Activation” value on ΔF508-CFTR [1] turned out to be 34.92%; at ΔF508-CFTR [2], 172.1%. Further, the 50% effective concentration (EC50) at ΔF508-CFTR [1] is 932 nM; on ΔF508-CFTR [2], 235 nM.
The corresponding values for `O=C(c1cc(N2CCC(CN3CCCC3)CC2)c2c(C3CCC3)nn(-c3ccccc3)c2n1)N1CCCS1(=O)=O` [Compound 661, 2-(3-cyclobutyl-1-phenyl-4-{4-[(pyrrolidin-1-yl)methyl]piperidin-1-yl}-1H-pyrazolo[3,4-b]pyridine-6-carbonyl)-1λ^6,2-thiazolidine-1,1-dione] are 67.125%, 227.45%, 155 nM and 135 nM.
On to `CN(C(=O)c1cc(N2CCC(CN3CCCC3)CC2)c2c(C3CCC3)nn(-c3ccccc3)c2n1)S(C)(=O)=O` [Compound 662, 3-cyclobutyl-N-(methanesulfonyl)-N-methyl-1-phenyl-4-{4-[(pyrrolidin-1-yl)methyl]piperidin-1-yl}-1H-pyrazolo[3,4-b]pyridine-6-carboxamide], for which the “% Activation” value came out at 134.35% on ΔF508-CFTR [1] and 346.65% at ΔF508-CFTR [2]. Besides, the concentration for a half-maximal effect (EC50) on ΔF508-CFTR [1] worked out at 124 nM; at ΔF508-CFTR [2] it was 104 nM.
Taken in the same sequence, the figures for `O=C(c1cc(N2CCC(CN3CCCC3)CC2)c2c(C3CCC3)nn(-c3ccccc3)c2n1)N1CCCCS1(=O)=O` [Compound 663, 2-(3-cyclobutyl-1-phenyl-4-{4-[(pyrrolidin-1-yl)methyl]piperidin-1-yl}-1H-pyrazolo[3,4-b]pyridine-6-carbonyl)-1λ^6,2-thiazinane-1,1-dione] were 57.9%, 206.5%, 234 nM and 103 nM.
Taken in the same sequence, the figures for `CN1CCCN(C(=O)c2cc(N3CCC(N4CCOCC4)CC3)c3c(C4CCC4)nn(-c4ccccc4)c3n2)S1(=O)=O` [Compound 664, 2-{3-cyclobutyl-4-[4-(morpholin-4-yl)piperidin-1-yl]-1-phenyl-1H-pyrazolo[3,4-b]pyridine-6-carbonyl}-6-methyl-1λ^6,2,6-thiadiazinane-1,1-dione] were 70.082%, 230.48%, 278 nM and 172 nM.
As for `O=C(c1cc(N2CCC(N3CCOCC3)CC2)c2c(C3CCC3)nn(-c3ccccc3)c2n1)N1CCCS1(=O)=O` [Compound 665, 2-{3-cyclobutyl-4-[4-(morpholin-4-yl)piperidin-1-yl]-1-phenyl-1H-pyrazolo[3,4-b]pyridine-6-carbonyl}-1λ^6,2-thiazolidine-1,1-dione], at ΔF508-CFTR [1], the “% Activation” value worked out at 101.9% and the EC50 amounted to 259 nM. Besides, on ΔF508-CFTR [2], the “% Activation” value amounted to 271.8% and the concentration giving a half-maximal response (EC50) is 101 nM.
Take `O=C(c1cc(N2CCC(N3CCOCC3)CC2)c2c(C3CCC3)nn(-c3ccccc3)c2n1)N1CCCCS1(=O)=O` [Compound 666, 2-{3-cyclobutyl-4-[4-(morpholin-4-yl)piperidin-1-yl]-1-phenyl-1H-pyrazolo[3,4-b]pyridine-6-carbonyl}-1λ^6,2-thiazinane-1,1-dione]: the “% Activation” value is reported as 99.775% on ΔF508-CFTR [1] and 266.6% on ΔF508-CFTR [2]. Moreover, the EC50 at ΔF508-CFTR [1] was found to be 256 nM; at ΔF508-CFTR [2] it was 122 nM.
Taken in the same sequence, the figures for `COCC1CCN(c2cc(C(=O)N3CCCS3(=O)=O)nc3c2c(C2CCC2)nn3-c2ccccc2)CC1` [Compound 667, 2-{3-cyclobutyl-4-[4-(methoxymethyl)piperidin-1-yl]-1-phenyl-1H-pyrazolo[3,4-b]pyridine-6-carbonyl}-1λ^6,2-thiazolidine-1,1-dione] were 75.435%, 225.5%, 208 nM and 85.5 nM.
As for `COCC1CCN(c2cc(C(=O)N3CCCCS3(=O)=O)nc3c2c(C2CCC2)nn3-c2ccccc2)CC1` [Compound 668, 2-{3-cyclobutyl-4-[4-(methoxymethyl)piperidin-1-yl]-1-phenyl-1H-pyrazolo[3,4-b]pyridine-6-carbonyl}-1λ^6,2-thiazinane-1,1-dione], the “% Activation” value on ΔF508-CFTR [1] is recorded as 89.495%; on ΔF508-CFTR [2], 307.4%. The EC50 on ΔF508-CFTR [1] was 384 nM; on ΔF508-CFTR [2] it was 257 nM.

Source of the values: patent US10259810B2, “N-sulfonylated pyrazolo[3,4-b]pyridin-6-carboxamides and method of use” (AbbVie S.à.r.l., priority 2015, dated 2019).
